{"source": "BindingDB's records for doi:10.1007/s00210-004-0951-4", "about": "(Vernalis Research, 2004)", "key": {"[1]": {"biological_target": "5-hydroxytryptamine receptor 2B (Homo sapiens, UniProt P41595)", "sequence (P41595 whole entry)": "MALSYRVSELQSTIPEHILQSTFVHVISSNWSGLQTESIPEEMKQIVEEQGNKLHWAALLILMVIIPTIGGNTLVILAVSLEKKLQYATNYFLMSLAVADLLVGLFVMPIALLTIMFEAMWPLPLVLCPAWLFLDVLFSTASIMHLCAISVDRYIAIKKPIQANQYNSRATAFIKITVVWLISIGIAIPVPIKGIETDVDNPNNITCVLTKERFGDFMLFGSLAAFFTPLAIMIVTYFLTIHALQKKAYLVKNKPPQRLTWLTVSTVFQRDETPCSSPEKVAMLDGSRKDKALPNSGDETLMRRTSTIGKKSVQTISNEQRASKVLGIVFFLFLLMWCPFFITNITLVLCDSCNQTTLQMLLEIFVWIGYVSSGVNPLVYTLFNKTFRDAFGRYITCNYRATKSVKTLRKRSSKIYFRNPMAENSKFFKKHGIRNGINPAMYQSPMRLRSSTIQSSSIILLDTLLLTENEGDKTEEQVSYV"}, "[2]": {"biological_target": "T1, 5-hydroxytryptamine receptor 2C (Homo sapiens, UniProt P28335)", "T1 sequence (P28335 whole entry)": "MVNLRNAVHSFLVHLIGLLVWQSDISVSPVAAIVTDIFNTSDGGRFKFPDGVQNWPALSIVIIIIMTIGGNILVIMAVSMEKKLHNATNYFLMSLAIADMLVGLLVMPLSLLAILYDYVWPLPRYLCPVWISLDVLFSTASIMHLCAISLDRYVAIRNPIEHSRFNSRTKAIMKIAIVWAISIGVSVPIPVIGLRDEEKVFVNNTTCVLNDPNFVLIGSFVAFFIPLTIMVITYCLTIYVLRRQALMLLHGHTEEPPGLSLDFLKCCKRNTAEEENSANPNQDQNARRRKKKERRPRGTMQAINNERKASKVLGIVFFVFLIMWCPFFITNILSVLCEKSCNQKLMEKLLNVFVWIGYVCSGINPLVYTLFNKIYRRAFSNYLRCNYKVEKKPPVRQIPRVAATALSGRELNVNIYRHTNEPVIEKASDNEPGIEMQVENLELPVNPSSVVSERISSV"}}, "note": "pKi: −log10 of the molar value. Values joined by “and” are separate entries in the source; they are usually repeats but may differ in a detail not shown here. Equal entries are not always repeated. Structures can show the parent of a compound that is named as a salt.", "data": [{"smiles": "CCCN(CCC)C1CCc2cccc(O)c2C1", "note": "(stereo not drawn)", "values": [{"measurement": "pKi", "setting": "[1]", "value": 5.39}]}, {"smiles": "Cc1nc2sccn2c(=O)c1CCN1CCC(=C(c2ccc(F)cc2)c2ccc(F)cc2)CC1", "values": [{"measurement": "pKi", "setting": "[1]", "value": 8.67}, {"measurement": "pKi", "setting": "[2]", "value": 8.18}]}, {"smiles": "CC[C@@H](CO)NC(=O)[C@@H]1C=C2c3cccc4c3c(cn4C)C[C@H]2N(C)C1", "values": [{"measurement": "pKi", "setting": "[2]", "value": 8.35}]}, {"smiles": "Cn1ccc2cc3c(cc21)CCN3C(=O)Nc1cccnc1", "values": [{"measurement": "pKi", "setting": "[1]", "value": 7.65}]}, {"smiles": "CSc1cc2c(cc1C(F)(F)F)N(C(=O)Nc1cccnc1)CC2", "values": [{"measurement": "pKi", "setting": "[1]", "value": 8.61}, {"measurement": "pKi", "setting": "[2]", "value": 8.66}]}, {"smiles": "C[C@H](N)CN1CCc2ccc(Br)cc21", "values": [{"measurement": "pKi", "setting": "[1]", "value": 7.52}, {"measurement": "pKi", "setting": "[2]", "value": 8.25}]}, {"smiles": "NCCc1c[nH]c2ccccc12", "note": "[1H-indole-3-ethanamine]", "values": [{"measurement": "pKi", "setting": "[1]", "value": 6.99}, {"measurement": "pKi", "setting": "[2]", "value": 5.63}]}, {"smiles": "COc1cc(CC(C)N)c(OC)cc1Br", "note": "(stereo not drawn) [2-(4-Bromo-2,5-dimethoxy-phenyl)-1-methyl-ethylamine((-)-DOB)]", "values": [{"measurement": "pKi", "setting": "[1]", "value": 7.36}]}, {"smiles": "FC(F)(F)c1ccc(N2CCNCC2)nc1Cl", "note": "[2-Chloro-3-(trifluoromethyl)-6-(1-piperazinyl)pyridine]", "values": [{"measurement": "pKi", "setting": "[1]", "value": 7.04}, {"measurement": "pKi", "setting": "[2]", "value": 7.83}]}, {"smiles": "c1ccc2nc(N3CCNCC3)ccc2c1", "note": "[2-Piperazin-1-yl-quinoline (Quipazine)]", "values": [{"measurement": "pKi", "setting": "[1]", "value": 7.07}, {"measurement": "pKi", "setting": "[2]", "value": 7.27}]}, {"smiles": "Cc1nc(-c2ccc(-c3ccc(C(=O)N4CCc5cc6c(cc54)C4(CCN(C)CC4)CO6)cc3)c(C)c2)no1", "note": "[4-[2-methyl-4-(5-methyl-1,2,4-oxadiazol-3-yl)phenyl]phenyl-1'-methylspiro[3,5,6,7-tetrahydro-2H-furo[2,3-f]indole-3,4'-(hexahydropyridine)]-5-ylmethanone]", "values": [{"measurement": "pKi", "setting": "[1]", "value": 5.87}, {"measurement": "pKi", "setting": "[2]", "value": 5.70}]}, {"smiles": "Cn1cc(CCN)c2cc(O)ccc21", "note": "[5-HT,omega-N-Me]", "values": [{"measurement": "pKi", "setting": "[1]", "value": 8.16}, {"measurement": "pKi", "setting": "[2]", "value": 8.57}]}, {"smiles": "O=C(CCCN1CCC2(CC1)C(=O)NCN2c1ccccc1)c1ccc(F)cc1", "note": "[8-[4-(4-fluorophenyl)-4-oxidanylidene-butyl]-1-phenyl-1,3,8-triazaspiro[4.5]decan-4-one]", "values": [{"measurement": "pKi", "setting": "[2]", "value": 6.22}]}, {"smiles": "CN1CC(C(=O)NC2(C)OC3(O)C4CCCN4C(=O)C(Cc4ccccc4)N3C2=O)C=C2c3cccc4[nH]cc(c34)CC21", "note": "(stereo not drawn) [CAS_113-15-5]", "values": [{"measurement": "pKi", "setting": "[1]", "value": 8.89}, {"measurement": "pKi", "setting": "[2]", "value": 8.72}]}, {"smiles": "CN1CC(NS(=O)(=O)N(C)C)CC2c3cccc4c3c(cn4C)CC21", "note": "(stereo not drawn) [CAS_64795-35-3]", "values": [{"measurement": "pKi", "setting": "[1]", "value": 8.46}]}, {"smiles": "CC(C)CC(N(C)C)C1(c2ccc(Cl)cc2)CCC1", "note": "(stereo not drawn) [CAS_106650-56-0]", "values": [{"measurement": "pKi", "setting": "[2]", "value": "< 5.00"}]}, {"smiles": "CN1CCN(c2nc3cc(C(F)(F)F)ccc3n3cccc23)CC1", "note": "[CAS_109028-10-6]", "values": [{"measurement": "pKi", "setting": "[1]", "value": 6.06}]}, {"smiles": "Cc1cc2c(cc1Cl)N(C(=O)Nc1ccc(Oc3cccnc3C)nc1)CC2", "note": "[CAS_181632-25-7]", "values": [{"measurement": "pKi", "setting": "[1]", "value": 6.84}, {"measurement": "pKi", "setting": "[2]", "value": 8.15}]}, {"smiles": "Cc1cc(NC(=O)Nc2ccc3c(ccn3C)c2)sn1", "note": "[CAS_3277600]", "values": [{"measurement": "pKi", "setting": "[1]", "value": 6.90}]}, {"smiles": "Clc1cncc(N2CCNCC2)n1", "note": "[L-630,571]", "values": [{"measurement": "pKi", "setting": "[1]", "value": 6.21}, {"measurement": "pKi", "setting": "[2]", "value": 7.01}]}, {"smiles": "OC(c1ccccc1)C1CCN(CCc2ccccc2)CC1", "note": "(stereo not drawn) [MDL-11939]", "values": [{"measurement": "pKi", "setting": "[1]", "value": 5.48}, {"measurement": "pKi", "setting": "[2]", "value": 6.58}]}, {"smiles": "COc1cc(OC)c(C(=O)CCCCN2CCC3(CC2)NC(=O)NC3=O)cc1NS(=O)(=O)c1ccc(C(F)(F)F)cc1", "note": "[N-[5-[5-(2,4-Dioxo-1,3,8-triazaspiro[4.5]decan-8-yl)-1-oxopentyl]-2,4-dimethoxyphenyl]-4-(trifluoromethyl)benzenesulfonamide]", "values": [{"measurement": "pKi", "setting": "[1]", "value": 5.54}, {"measurement": "pKi", "setting": "[2]", "value": 8.30}]}, {"smiles": "CCC(CO)NC(=O)C1C=C2c3cccc4[nH]cc(c34)CC2N(C)C1", "note": "(stereo not drawn) [NSC_8226]", "values": [{"measurement": "pKi", "setting": "[1]", "value": 9.34}, {"measurement": "pKi", "setting": "[2]", "value": 8.34}]}, {"smiles": "CCCN1CCCC2Cc3[nH]ncc3CC21", "note": "(stereo not drawn) [NSC_55397]", "values": [{"measurement": "pKi", "setting": "[1]", "value": 6.52}, {"measurement": "pKi", "setting": "[2]", "value": 5.48}]}, {"smiles": "O=C1NCN(c2ccccc2)C12CCN(CCCOc1ccc(F)cc1)CC2", "note": "[NSC_77445]", "values": [{"measurement": "pKi", "setting": "[2]", "value": 5.81}]}, {"smiles": "CC(C)CC(N)C1(c2ccc(Cl)cc2)CCC1", "note": "(stereo not drawn) [NSC_134771]", "values": [{"measurement": "pKi", "setting": "[1]", "value": "< 5.00"}, {"measurement": "pKi", "setting": "[2]", "value": "< 5.00"}]}, {"smiles": "CC(N)Cn1ccc2cc(F)c(Cl)cc21", "note": "(stereo not drawn) [NSC_3045226]", "values": [{"measurement": "pKi", "setting": "[1]", "value": 8.27}, {"measurement": "pKi", "setting": "[2]", "value": 8.22}]}, {"smiles": "CC(N)Cc1c[nH]c2ccc(OCc3cccs3)cc12", "note": "(stereo not drawn) [NSC_5311036]", "values": [{"measurement": "pKi", "setting": "[2]", "value": 7.11}]}, {"smiles": "C[C@H](N)Cc1cccc(C(F)(F)F)c1", "note": "[Norfenfluramine (+)]", "values": [{"measurement": "pKi", "setting": "[1]", "value": 7.00}, {"measurement": "pKi", "setting": "[2]", "value": 7.29}]}, {"smiles": "COc1ccc2c(c1O[C@H]1CCNC1)CCC2", "note": "[ORG-37684]", "values": [{"measurement": "pKi", "setting": "[1]", "value": 7.37}, {"measurement": "pKi", "setting": "[2]", "value": 8.12}]}, {"smiles": "CC(C)c1cc(-c2ccc(F)c3ccccc23)nc(N)n1", "note": "[RS-127445]", "values": [{"measurement": "pKi", "setting": "[1]", "value": 8.97}, {"measurement": "pKi", "setting": "[2]", "value": 6.33}]}, {"smiles": "CN1CC[C@@H]2CN3CCc4cccc(c43)[C@@H]2C1", "note": "[SDZ SER 082 FUMARATE]", "values": [{"measurement": "pKi", "setting": "[1]", "value": 6.69}, {"measurement": "pKi", "setting": "[2]", "value": 8.12}]}, {"smiles": "FC(F)(F)c1cccc(N2CCNCC2)c1", "note": "[TFMPP]", "values": [{"measurement": "pKi", "setting": "[1]", "value": 7.23}]}, {"smiles": "NCCc1c[nH]c2ccc(C(N)=O)cc12", "note": "[[3H]-5-carboxamidotryptamine]", "values": [{"measurement": "pKi", "setting": "[1]", "value": 6.73}]}, {"smiles": "COc1cc(CC(C)N)c(OC)cc1I", "note": "(stereo not drawn) [[125I]2,5-dimethoxy-4-iodoamphetamine]", "values": [{"measurement": "pKi", "setting": "[1]", "value": "7.55 and 7.27"}, {"measurement": "pKi", "setting": "[2]", "value": "8.08 and 8.27"}]}, {"smiles": "CSc1ccc2c(c1)C(N1CCN(C)CC1)Cc1ccccc1S2", "note": "(stereo not drawn) [methanesulfonic acid;1-methyl-4-(3-methylsulfanyl-5,6-dihydrobenzo[b][1]benzothiepin-5-yl)piperazine]", "values": [{"measurement": "pKi", "setting": "[2]", "value": 8.35}]}]}
